In US11371022B2, “Blood-brain barrier endothelial cells derived from pluripotent stem cells for blood-brain barrier models” (PRESIDENT AND FELLOWS OF HARVARD COLLEGE, priority 2016, dated 2022):

Legend:
efflux pump = test: DiOC2 permeability test of efflux pump function in BBB chip; format: in vitro ADME, human; details: hypoxia stimulation vs normoxia BBB chip; FIG. 9B
Excerpt: FIGS. 9A-9C are bar graphs showing the inhibition of the efflux transporter in control and hypoxic stimulated BBB chips by verapamil, MK-571 or KO143. […] All inhibitor-treated samples were independently normalized to the corresponding mock control.
A non-limiting example of assembling a BBB model in a microfluidic chip having flow, using the hypoxia differentiated PSCs-to-BMVECs is as follows. To assemble the BBB model on microfluidic chips, polydimethylsiloxane (PDMS) microfluidic chip was plasma treated (0.5 mbar, 50 W, 2 min) and coated with 0.01% poly-L-lysine solution for 1 hour. Subsequently, 400 ug/ml collagen IV and 100 μg/ml fibronectin were treated to microfluidic chips and incubated overnight in normal cell culture condition (37 C, 5% CO2, 20% O2). A day after coating, ECM solution was rinsed with EC+RA medium. The harvested astrocytes and pericytes were resuspended at 0.7 and 0.3 million cells/mL in EC+RA medium. Mixture of cells was seeded on apical micro-channel, and placed in incubator for 1 hour allowing the cells to adhere to membrane. The differentiated BMVECs on 6-cm plastic culture dish were dissociated using Accutase, harvested, and resuspended 25 million cells/mL in degassed EC+RA media. The differentiated BMVECs were seeded on basal micro-channel, and flip the entire PDMS chip upside down in petri dish to allow the BMVEC to attach to the membrane. […]

ABCB1 = biological target: T1, ABCB1 (Homo sapiens, UniProt P08183); test: Doxorubicin permeability across BBB chip with or without verapamil (efflux pump inhibition); format: in vitro ADME; details: FIG. 9C
T1 construct: The BBB model chip comprises iPSC-derived, hypoxia-stimulated or -differentiated BMVECs; endogenous in cells; host or cells: human iPSC (IMR90-4)-derived brain microvascular endothelial cells, co-cultured with astrocytes and pericytes on a microfluidic chip
T1 sequence (P08183 whole entry): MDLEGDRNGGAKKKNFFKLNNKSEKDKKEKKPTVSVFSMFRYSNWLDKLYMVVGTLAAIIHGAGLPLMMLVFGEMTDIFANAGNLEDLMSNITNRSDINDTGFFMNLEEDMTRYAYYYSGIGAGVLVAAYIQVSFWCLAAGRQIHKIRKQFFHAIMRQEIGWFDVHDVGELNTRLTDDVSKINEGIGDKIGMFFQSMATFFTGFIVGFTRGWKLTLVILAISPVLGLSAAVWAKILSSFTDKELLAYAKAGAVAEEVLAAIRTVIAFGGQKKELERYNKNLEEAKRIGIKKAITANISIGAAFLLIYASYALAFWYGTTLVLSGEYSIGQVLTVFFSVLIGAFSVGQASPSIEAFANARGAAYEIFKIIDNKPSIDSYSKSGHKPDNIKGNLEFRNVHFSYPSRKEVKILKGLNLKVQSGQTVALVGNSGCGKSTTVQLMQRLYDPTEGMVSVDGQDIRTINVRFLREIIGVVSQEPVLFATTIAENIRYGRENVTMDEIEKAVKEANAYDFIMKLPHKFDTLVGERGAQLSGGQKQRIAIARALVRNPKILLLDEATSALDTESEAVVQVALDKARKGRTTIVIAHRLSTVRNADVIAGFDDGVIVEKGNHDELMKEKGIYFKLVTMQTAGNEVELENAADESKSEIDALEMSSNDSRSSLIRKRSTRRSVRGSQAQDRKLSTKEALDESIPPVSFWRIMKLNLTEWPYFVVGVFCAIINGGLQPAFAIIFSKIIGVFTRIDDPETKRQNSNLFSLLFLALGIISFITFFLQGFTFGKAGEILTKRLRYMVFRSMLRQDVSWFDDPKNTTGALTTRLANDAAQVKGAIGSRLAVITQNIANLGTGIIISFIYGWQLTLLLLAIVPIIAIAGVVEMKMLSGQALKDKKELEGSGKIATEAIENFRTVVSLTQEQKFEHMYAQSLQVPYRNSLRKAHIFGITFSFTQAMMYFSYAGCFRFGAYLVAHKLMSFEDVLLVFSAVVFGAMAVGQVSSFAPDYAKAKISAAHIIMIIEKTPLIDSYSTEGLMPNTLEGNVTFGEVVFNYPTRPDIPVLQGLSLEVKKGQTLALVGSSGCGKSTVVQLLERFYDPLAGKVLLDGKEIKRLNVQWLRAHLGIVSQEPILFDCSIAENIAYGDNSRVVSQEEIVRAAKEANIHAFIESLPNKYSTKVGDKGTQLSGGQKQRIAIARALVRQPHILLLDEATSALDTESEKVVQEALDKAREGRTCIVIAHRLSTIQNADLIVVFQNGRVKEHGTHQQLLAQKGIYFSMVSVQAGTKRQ
Excerpt: Doxorubicin is known as a substrate of ABCB1.

ABCB (P-gp) [1] = biological target: T2, ABCB (P-gp) (Mus musculus, UniProt P21447); details: cited from earlier work
T2 construct: compared to in vivo efflux ratios (2.4-fold) (Cell, 1994, 77, 4)
T2 sequence (P21447 whole entry): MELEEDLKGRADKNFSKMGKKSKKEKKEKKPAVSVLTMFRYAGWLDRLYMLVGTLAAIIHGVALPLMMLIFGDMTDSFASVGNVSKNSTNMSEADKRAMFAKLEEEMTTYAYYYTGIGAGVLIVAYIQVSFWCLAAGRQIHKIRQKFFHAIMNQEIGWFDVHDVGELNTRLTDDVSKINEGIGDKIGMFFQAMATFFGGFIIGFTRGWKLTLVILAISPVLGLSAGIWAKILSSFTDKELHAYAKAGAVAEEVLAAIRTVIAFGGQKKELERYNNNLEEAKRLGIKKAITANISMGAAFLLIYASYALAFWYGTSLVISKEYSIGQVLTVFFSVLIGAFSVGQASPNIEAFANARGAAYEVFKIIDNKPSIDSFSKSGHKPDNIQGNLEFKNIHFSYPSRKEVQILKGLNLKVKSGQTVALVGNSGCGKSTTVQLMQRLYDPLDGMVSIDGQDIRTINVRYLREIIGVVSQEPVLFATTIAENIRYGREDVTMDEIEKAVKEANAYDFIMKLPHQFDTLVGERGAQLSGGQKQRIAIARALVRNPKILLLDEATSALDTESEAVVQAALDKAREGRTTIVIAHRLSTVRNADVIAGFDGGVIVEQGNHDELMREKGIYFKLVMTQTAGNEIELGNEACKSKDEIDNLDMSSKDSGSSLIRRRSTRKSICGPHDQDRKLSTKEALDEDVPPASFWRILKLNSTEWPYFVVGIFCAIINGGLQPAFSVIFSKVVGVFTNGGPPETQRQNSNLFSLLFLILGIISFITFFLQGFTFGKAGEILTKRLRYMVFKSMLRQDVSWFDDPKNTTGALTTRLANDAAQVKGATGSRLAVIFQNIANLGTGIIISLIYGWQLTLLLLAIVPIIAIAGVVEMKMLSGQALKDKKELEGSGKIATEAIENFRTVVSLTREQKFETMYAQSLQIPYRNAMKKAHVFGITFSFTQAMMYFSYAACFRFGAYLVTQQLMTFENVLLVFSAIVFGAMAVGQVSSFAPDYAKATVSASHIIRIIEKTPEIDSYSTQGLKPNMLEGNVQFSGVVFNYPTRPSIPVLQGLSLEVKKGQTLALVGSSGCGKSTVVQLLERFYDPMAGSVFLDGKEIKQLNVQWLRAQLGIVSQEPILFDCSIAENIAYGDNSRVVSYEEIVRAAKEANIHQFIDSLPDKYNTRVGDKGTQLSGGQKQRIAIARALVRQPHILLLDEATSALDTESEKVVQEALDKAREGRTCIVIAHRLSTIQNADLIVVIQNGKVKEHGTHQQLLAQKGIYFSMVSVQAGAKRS

ABCB (P-gp) [2] = biological target: T3, ABCB (P-gp) (Homo sapiens, UniProt P08183); details: iPS-derived BMVEC generated using published protocol, in vitro; cited from earlier work
T3 construct: host or cells: iPS-derived BMVEC (published protocol)
T3 sequence (P08183 whole entry): as the sequence (P08183 whole entry) above

efflux pump function in DiO2 test (efflux pump)	doxorubicin permeability, increase by verapamil treatment (ABCB1; hypoxia BBB chip, verapamil (ABCB1 inhibitor) vs mock control) [fold]	change of doxorubicin BBB penetration by verapamil (ABCB1; normoxia control BBB chip)	SMILES	in vivo efflux ratios (ABCB (P-gp) [1]) [fold]	efflux ratio (ABCB (P-gp) [2]) [fold]
enhanced efflux pump function	–	–	CCN1/C(=C/C=C/c2oc3ccccc3[n+]2CC)Oc2ccccc21.[I-] [DiO2]	–	–
–	2.7	did not show significant change	COc1cccc2c1C(=O)c1c(O)c3c(c(O)c1C2=O)C[C@@](O)(C(=O)CO)C[C@@H]3O[C@H]1C[C@H](N)[C@H](O)[C@H](C)O1 [Doxorubicin, doxorubicin]	2.4	1.3
